Experimental data as given in the Kinase Knowledgebase extract (Sharma et al. 2016).

Biological target: MAPK14;MAPK11;MAPK12 (human) (UniProt Q16539)
Test: Inhibition of p38 Kinase Activity

SMILES	IC50 [nM]
CC1(C)C2CCC(CNc3nc(Nc4ccc5[nH]nnc5c4)nc(N4CCNCC4)n3)C1C2 (stereo unspecified)	< 10000
Cc1ccc(C(N)=O)cc1Sc1nc(N(C)CC(C)(C)C)nc(N2CCCN(C)CC2)n1	< 30000
CNCCN(C)c1nc(NC[C@@H](C)c2ccccc2)nc(Nc2ccc3ncsc3c2)n1	< 10000
Nc1nc(NCCc2ccccc2)nc(Nc2ccc(S(=O)(=O)Nc3ncccn3)cc2)n1	< 10000
CC(Cc1ccccc1)Nc1nc(Nc2ccc3ncsc3c2)nc(N2CCNCC2)n1 (stereo unspecified)	< 10000
CC(=O)N(C)CCCN(C)c1nc(NCC(C)c2ccccc2)nc(Nc2ccc3ncsc3c2)n1 (stereo unspecified)	< 10000
CCOC(=O)N1CCN(c2nc(NC[C@@H]3CC[C@H]4C[C@@H]3C4(C)C)nc(Nc3ccc4ncsc4c3)n2)CC1	< 10000
CC(CNc1nc(Nc2ccc3ncsc3c2)nc(N(C)CCCN(C)C(=O)c2cccnc2)n1)c1ccccc1 (stereo unspecified)	< 10000
CC(CNc1nc(Nc2ccc3ncsc3c2)nc(N2CCN(C(=S)NC3CCCCC3)CC2)n1)c1ccccc1 (stereo unspecified)	< 10000
CC(CNc1nc(Nc2ccc3ncsc3c2)nc(N2CCN(C(=N)N)CC2)n1)c1ccccc1 (stereo unspecified)	< 10000
CN(CC1CCC2CC1C2(C)C)c1nc(Nc2ccc3ncsc3c2)nc(N2CCN(C(=O)OC(C)(C)C)CC2)n1 (stereo unspecified)	< 10000
Cc1ccc2c(c1)ncn2-c1nc(F)cc(NCCOC(C)C)n1	< 10000
CNCCN(C)c1nc(NC[C@@H](C)c2ccccc2)nc(-n2cnc3ccccc32)n1	< 10000
O=C(O)CCC(=O)N1CCN(c2nc(Nc3ccc4ncsc4c3)nc(NC3CCc4ccccc43)n2)CC1 (stereo unspecified)	< 10000
NC(=O)CNc1nc(Nc2ccc3ncsc3c2)nc(NC2CCc3ccccc32)n1 (stereo unspecified)	< 10000
CONC(=O)c1ccc(C)c(Sc2nc(NCc3ccccn3)nc(N(C)CC(C)(C)C)n2)c1	< 30000
CNc1nc(NCCOC(C)C)nc(Nc2ccc3ncsc3c2)n1	< 10000
CNC(=O)c1ccc(C(F)(F)F)c(Nc2nc(N[C@H]3CCNC3)nc(N(C)CC(C)(C)C)n2)c1	< 1000
Cc1ccc(CNC(C)C)cc1Nc1nc(N[C@H]2CCNC2)nc(N(C)CC(C)(C)C)n1	< 1000
Cc1ccc(C(N)=O)cc1Nc1nc(N[C@H]2CCN(c3ccccc3)C2)nc(N(C)CC(C)(C)C)n1	< 1000
Cc1ccc(C(N)=O)cc1Nc1nc(NCCc2ccc3c(c2)OCO3)nc(N[C@H]2CCNC2)n1	< 1000

SMILES	IC50 [nM]
Cc1ccc2c(c1Nc1nc(NCC(C)(C)C)nc(N[C@H]3CCNC3)n1)CNC2=O	< 1000
CCCCNc1nc(Nc2cc(C(=O)NOC)ccc2C)nc(N(C)CC(C)(C)C)n1	< 1000
CN(CC1CCC2CC1C2(C)C)c1nc(Nc2ccc3ncsc3c2)nc(N2CCN(S(C)(=O)=O)CC2)n1 (stereo unspecified)	< 10000
Cc1ccc(C(N)=O)cc1Nc1nc(N[C@H]2CCNC2)nc(SCC(C)C)n1	< 1000
CNC(=O)CCC(=O)N1CCN(c2nc(NCC3CC[C@H]4C[C@@H]3C4(C)C)nc(Nc3ccc4ncsc4c3)n2)CC1 (stereo partly specified)	< 10000
Cc1ccc(C(N)=O)cc1Nc1nc(N[C@H]2CCN(Cc3cccc(Cl)c3)C2)nc(N(C)CC(C)C)n1	< 1000
O=C(O)CCC(=O)N1CCN(c2nc(NCC3CCCCC3)nc(Nc3ccc4ncsc4c3)n2)CC1	< 10000
Cc1ccc(C(N)=O)cc1Nc1nc(NCC2CCNCC2)nc(NC(C)C2CCCCC2)n1 (stereo unspecified)	< 1000
Cc1ccc(C(N)=O)cc1Nc1nc(N[C@@H]2CCNC2)nc(N(C)C2CCCC2)n1	< 1000
CONC(=O)c1ccc(C)c(Nc2nc(NCCCN3CCOCC3)nc(N(C)CC(C)(C)C)n2)c1	< 1000
Clc1cccc(Nc2nc(Cl)nc(Nc3ccc4ncsc4c3)n2)c1	< 10000
CCNC(=O)c1ccc(C)c(Nc2nc(NC[C@H]3CCCN3)nc(N(C)CC(C)(C)C)n2)c1	< 1000
Cc1ccc(-c2ncc[nH]2)cc1Nc1nc(N(C)CC(C)(C)C)nc(N2CCCN(C)CC2)n1	< 1000
CCCCOc1nc(Nc2cc(C(N)=O)ccc2C)nc(NC2CCCC2)n1	< 1000
Cc1ccc(C(N)=O)cc1Nc1nc(N[C@@H]2CCN(C(C)C(C)C)C2)nc(N(C)CC(C)(C)C)n1 (stereo partly specified)	< 1000
CC(C)NC(=O)N(C)CCCN(C)c1nc(NCC(C)c2ccccc2)nc(Nc2ccc3ncsc3c2)n1 (stereo unspecified)	< 10000
Cc1ccc(C(N)=O)cc1Nc1nc(NC2CCN(Cc3ccc(O)cc3)C2)nc(N(C)CC(C)C)n1 (stereo unspecified)	< 1000
Cc1ccc(-c2ncc[nH]2)cc1Nc1nc(N[C@@H]2CCNC2)nc(N(C)CC(C)(C)C)n1	< 1000
Cc1ccc(C(N)=O)cc1Nc1nc(N[C@H]2CCCC[C@H]2NC(C)C)nc(N(C)CC(C)(C)C)n1	< 1000
Cc1ccc(C(N)=O)cc1Nc1nc(NC2CCN(C(C)C)CC2)nc(N(C)CC(C)(C)C)n1	< 1000
Cc1ccc(C(=O)NCCc2ccccc2)cc1Nc1nc(N[C@H]2CCNC2)nc(N(C)CC(C)(C)C)n1	< 1000

SMILES	IC50 [nM]
Cc1ccc(C(N)=O)cc1Nc1nc(NCC23CC4CC(CC(C4)C2)C3)nc(NC2CCNC2)n1 (stereo unspecified)	< 1000
Cc1ccc(C(N)=O)cc1Nc1nc(O)nc(NC2CCCC2)n1	< 1000
Cc1ccc(C(N)=O)cc1Nc1nc(NC[C@H]2CCCN2)nc(N(C)CC(C)C)n1	< 1000
CN(CC(C)(C)C)c1nc(N[C@@H]2CCNC2)nc(Sc2cc(C(N)=O)ccc2F)n1	< 30000
CC(=O)NCc1ccc(C)c(Nc2nc(N[C@H]3CCNC3)nc(N(C)CC(C)(C)C)n2)c1	< 1000
CC(C)C(=O)N1CCN(c2nc(NCC(C)c3ccccc3)nc(Nc3ccc4ncsc4c3)n2)CC1 (stereo unspecified)	< 10000
Cc1ccc(C(N)=O)cc1Nc1nc(NCC23CC4CC(CC(C4)C2)C3)nc(N[C@@H]2CCNC2)n1	< 1000
COCC(C)N1CC[C@@H](Nc2nc(Nc3cc(C(N)=O)ccc3C)nc(N(C)CC(C)(C)C)n2)C1 (stereo partly specified)	< 1000
CCNC(=O)c1ccc(C)c(Nc2nc(N[C@@H]3CCN(C4=CC(=O)CC(C)(C)C4)C3)nc(N(C)CC(C)(C)C)n2)c1	< 1000
Cc1ccc(C(N)=O)cc1Nc1nc(NCC(C)(C)C)nc(N[C@@H]2CCNC2)n1	< 1000
CNCCN(C)c1nc(NCc2ccc(F)cc2F)nc(Nc2ccc3ncsc3c2)n1	< 10000
Cc1ccc(C(N)=O)cc1Nc1nc(N[C@H]2CCNC2)nc(N(C)CC(C)C(F)(F)F)n1 (stereo partly specified)	< 1000
CNc1nc(Nc2ccc3ncsc3c2)nc(N[C@H](C)C2CCCCC2)n1	< 10000
Cc1ccc(C(N)=O)cc1Nc1nc(CC2CCCC2)nc(Nc2ccncc2)n1	< 1000
CNC(=O)c1ccc(C)c(Nc2nc(NC3CCN(Cc4ccccn4)C3)nc(N(C)CC(C)(C)C)n2)c1 (stereo unspecified)	< 1000
CC(CNc1nc(Nc2ccc3ncsc3c2)nc(N2CC3CC2CN3S(=O)(=O)N(C)C)n1)c1ccccc1 (stereo unspecified)	< 10000
Cc1ccc(C(N)=O)cc1Nc1nc(N[C@H]2CN[C@@H](C)C2)nc(N(C)CC(C)(C)C)n1	< 1000
Cc1ccc(C(N)=O)cc1Nc1nc(O)nc(N[C@H]2CCNC2)n1	< 1000
CN(CCN(C)c1nc(NCC2CCC3CC2C3(C)C)nc(Nc2ccc3ncccc3c2)n1)C(=O)CCC(=O)O (stereo unspecified)	< 10000
CCCCN(C)c1nc(Nc2cc(C(N)=O)ccc2C)nc(N[C@H]2CCNC2)n1	< 1000

Continued, values first:

IC50 [nM]	SMILES
< 1000	CCONC(=O)c1ccc(C)c(Nc2cc(N3CCCN(C)CC3)nc(N(C)CC(C)(C)C)n2)c1
< 1000	Cc1ccc(C(N)=O)cc1Nc1nc(NCC(C)c2ccccc2)nc(N[C@H]2CCNC2)n1 (stereo partly specified)
< 1000	Cc1ccc(C(N)=O)cc1Nc1nc(N[C@H]2CCN(CC(C)(C)C)C2)nc(N(C)CC(C)(C)C)n1
< 1000	COc1ccc(NC(=O)c2ccc(C)c(Nc3nc(N[C@H]4CCNC4)nc(N(C)CC(C)(C)C)n3)c2)cc1
< 1000	Cc1cc(Cl)c(C(N)=O)cc1Nc1nc(N[C@H]2CCNC2)nc(N(C)CC(C)(C)C)n1
< 1000	Cc1ccc(S(N)(=O)=O)cc1Nc1nc(N[C@H]2CCNC2)nc(N(C)CC(C)(C)C)n1
< 1000	CCN1CC[C@@H](Nc2nc(Nc3cc(C(=O)NOC)ccc3C)nc(N(C)CC(C)(C)C)n2)C1
< 1000	Cc1ccc(C(=O)NC2CCCC2)cc1Nc1nc(N[C@H]2CCNC2)nc(N(C)CC(C)(C)C)n1
< 1000	CONC(=O)c1ccc(C)c(Nc2nc(N(C)CC(C)(C)C)nc(-n3ccnc3)n2)c1
< 1000	Cc1ccc(C(N)=O)cc1Nc1nc(N[C@H]2CCNC2)cc(N(C)CC(C)C)n1
< 1000	Cc1ccc2c(c1Nc1nc(N[C@H]3CCNC3)nc(N(C)CC(C)(C)C)n1)CNC2=O
< 1000	Cc1ccc(C(N)=O)cc1Nc1nc(N[C@H]2CCN(Cc3ccncc3)C2)nc(N(C)CC(C)C)n1
< 1000	CONC(=O)c1ccc(C)c(Nc2nc(NC(C)c3ccccn3)nc(N(C)CC(C)(C)C)n2)c1 (stereo unspecified)
< 1000	CONC(=O)c1ccc(C)c(Nc2cc(F)nc(N(C)CC(C)(C)C)n2)c1
< 1000	Cc1ccc(C(N)=O)cc1Nc1nc(N[C@H]2CCN(C(C)(C)C)C2)nc(N(C)CC(C)(C)C)n1
< 1000	Cc1ccc(C(=O)NCC(F)(F)F)cc1Nc1nc(N[C@H]2CCNC2)nc(N(C)CC(C)C)n1
< 1000	Cc1ccc(C(N)=O)cc1Nc1nc(NCC(C)C)nc(N[C@H]2CCNC2)n1
< 1000	Cc1ccccc1CN1CC[C@H](Nc2nc(Nc3cc(C(N)=O)ccc3C)nc(N(C)CC(C)C)n2)C1
< 1000	Cc1ccc(C(N)=O)cc1Nc1nc(NC2CCCc3ccccc32)nc(N[C@@H]2CCNC2)n1 (stereo partly specified)
< 1000	COCCNC(=O)c1ccc(C)c(Nc2nc(N[C@H]3CCNC3)nc(N(C)CC(C)C)n2)c1
< 1000	CCCC1(C)CCN(c2nc(Nc3cc(C(N)=O)ccc3C)nc(N[C@@H]3CCNC3)n2)C1 (stereo partly specified)
< 1000	CCONC(=O)c1ccc(C)c(Nc2nc(N[C@H]3CCNC3)nc(N(C)CC(C)C)n2)c1
< 1000	Cc1ccc(C(N)=O)cc1Nc1nc(NC2CCN(Cc3ccccn3)C2)nc(N(C)CC(C)C)n1 (stereo unspecified)
< 1000	Cc1ccc(C(N)=O)cc1Nc1nc(N[C@H]2CCN(c3ccccc3N)C2)nc(N(C)CC(C)(C)C)n1
< 1000	COCCCN1CCC(Nc2nc(Nc3cc(C(N)=O)ccc3C)nc(N(C)CC(C)C)n2)C1 (stereo unspecified)
< 1000	Cc1ccc(C(N)=O)cc1Nc1nc(N[C@H]2CN[C@H](C)C2)nc(N(C)CC(C)(C)C)n1
< 1000	Cc1ccc(C(N)=O)cc1Nc1nc(N[C@H]2CCN(C3CCCCC3)C2)nc(N(C)CC(C)(C)C)n1
< 1000	CNc1nc(Nc2cc(C(=O)NOC)ccc2C)nc(N(C)CC(C)(C)C)n1
< 1000	Cc1ccc(C(N)=O)cc1Nc1nc(Cl)nc(N[C@@H]2CCNC2)n1
